In the test the target is T1, PI3Kδ (p110δ/p85α) (Homo sapiens, UniProt O00329).
T1 construct: purchased Millipore (Bedford, Mass.)
Kind of test: PI3Kδ scintillation proximity assay. The format is biochemical. The source says:
Materials: [γ-^33P]ATP (10 mCi/mL) was purchased from Perkin-Elmer (Waltham, Mass.). Lipid kinase substrate, D-myo-Phosphatidylinositol 4,5-bisphosphate (PtdIns(4,5)P2)D (+)-sn-1,2-di-O-octanoylglyceryl, 3-O-phospho linked (PIP2), CAS 204858-53-7, was purchased from Echelon Biosciences (Salt Lake City, Utah). PI3Kδ (p110δ/p85α) was purchased from Millipore (Bedford, Mass.). ATP, MgCl2, DTT, EDTA, MOPS and CHAPS were purchased from Sigma-Aldrich (St. Louis, Mo.). Wheat Germ Agglutinin (WGA) YSi SPA Scintillation Beads was purchased from GE healthcare life sciences (Piscataway, N.J.).
Assay: The kinase reaction was conducted in polystyrene 384-well matrix white plate from Thermo Fisher Scientific in a final volume of 25 μL. Inhibitors were first diluted serially in DMSO and added to the plate wells before the addition of other reaction components. The final concentration of DMSO in the assay was 0.5%. The PI3K assays were carried out at room temperature in 20 mM MOPS, pH 6.7, 10 mM MgCl2, 5 mM DTT and CHAPS 0.03%. Reactions were initiated by the addition of ATP, the final reaction mixture consisted of 20 μM PIP2, 20 μM ATP, 0.2 μCi [γ-^33P] ATP, 4 nM PI3Kδ. Reactions were incubated for 210 minutes and terminated by the addition of 40 μL SPA beads suspended in quench buffer: 150 mM potassium phosphate pH 8.0, 20% glycerol. 25 mM EDTA, 400 μM ATP. The final concentration of SPA beads is 1.0 mg/mL. After the plate sealing, plates were shaken overnight at room temperature and centrifuged at 1800 rpm for 10 minutes, the radioactivity of the product was determined by scintillation counting on Topcount (Perkin-Elmer). IC50 determination was performed by fitting the curve of percent control activity versus the log of the inhibitor concentration using the GraphPad Prism® 3.0 software.
For orientation: Scintillation proximity formats need no separation of bound from free tracer.

Molecules are shown by their SMILES. Counter-ions that a name gives are not always drawn. Like-named read-outs stand apart in the source and are kept apart here.

T1 sequence (O00329 whole entry): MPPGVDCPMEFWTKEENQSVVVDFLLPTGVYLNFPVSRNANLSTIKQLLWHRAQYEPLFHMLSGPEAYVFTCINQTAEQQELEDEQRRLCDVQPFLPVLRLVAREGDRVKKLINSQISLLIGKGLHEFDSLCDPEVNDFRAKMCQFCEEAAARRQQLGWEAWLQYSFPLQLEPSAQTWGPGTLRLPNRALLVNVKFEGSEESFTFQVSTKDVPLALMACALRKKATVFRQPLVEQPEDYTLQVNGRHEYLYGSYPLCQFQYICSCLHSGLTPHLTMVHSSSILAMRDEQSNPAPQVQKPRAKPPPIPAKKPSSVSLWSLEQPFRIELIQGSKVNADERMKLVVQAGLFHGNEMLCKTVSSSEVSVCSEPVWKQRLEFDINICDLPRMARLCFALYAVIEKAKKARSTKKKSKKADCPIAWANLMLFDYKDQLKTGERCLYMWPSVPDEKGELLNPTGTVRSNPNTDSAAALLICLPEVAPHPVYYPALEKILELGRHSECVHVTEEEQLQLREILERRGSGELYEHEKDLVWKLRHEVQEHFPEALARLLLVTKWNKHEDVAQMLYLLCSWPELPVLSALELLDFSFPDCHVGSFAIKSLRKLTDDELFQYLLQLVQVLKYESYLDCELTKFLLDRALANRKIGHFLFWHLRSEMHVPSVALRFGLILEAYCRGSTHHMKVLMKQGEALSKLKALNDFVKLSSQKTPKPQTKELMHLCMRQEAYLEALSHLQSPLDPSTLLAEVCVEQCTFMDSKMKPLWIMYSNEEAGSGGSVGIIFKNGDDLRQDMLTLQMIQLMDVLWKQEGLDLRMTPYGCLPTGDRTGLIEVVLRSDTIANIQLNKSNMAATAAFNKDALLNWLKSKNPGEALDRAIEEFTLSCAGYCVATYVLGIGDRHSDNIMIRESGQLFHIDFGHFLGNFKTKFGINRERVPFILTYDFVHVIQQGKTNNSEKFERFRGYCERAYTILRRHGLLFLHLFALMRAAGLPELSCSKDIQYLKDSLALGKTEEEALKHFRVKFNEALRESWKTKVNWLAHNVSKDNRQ
T1 sequence (P27986 whole entry partner): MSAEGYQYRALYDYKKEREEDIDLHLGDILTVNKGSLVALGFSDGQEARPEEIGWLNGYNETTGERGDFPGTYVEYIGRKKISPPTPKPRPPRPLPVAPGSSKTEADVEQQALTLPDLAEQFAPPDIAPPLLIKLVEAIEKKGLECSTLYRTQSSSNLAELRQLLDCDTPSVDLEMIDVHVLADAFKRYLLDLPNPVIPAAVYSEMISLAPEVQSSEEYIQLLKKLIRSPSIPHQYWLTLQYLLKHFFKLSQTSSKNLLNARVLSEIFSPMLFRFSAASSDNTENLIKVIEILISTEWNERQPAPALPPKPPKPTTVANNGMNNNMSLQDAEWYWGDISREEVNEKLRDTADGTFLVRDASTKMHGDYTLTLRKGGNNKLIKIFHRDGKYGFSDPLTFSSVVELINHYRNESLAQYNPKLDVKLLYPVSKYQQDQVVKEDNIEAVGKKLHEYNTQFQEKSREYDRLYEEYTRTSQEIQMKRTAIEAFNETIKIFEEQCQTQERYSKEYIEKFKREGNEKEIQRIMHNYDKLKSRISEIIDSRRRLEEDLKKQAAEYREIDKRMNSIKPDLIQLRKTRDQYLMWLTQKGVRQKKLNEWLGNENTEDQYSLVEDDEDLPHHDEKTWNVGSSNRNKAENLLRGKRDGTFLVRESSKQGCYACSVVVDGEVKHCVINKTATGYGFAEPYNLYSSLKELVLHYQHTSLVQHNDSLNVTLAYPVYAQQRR

By IC50 is commonly meant the concentration that inhibits the measured activity by half. Lower therefore signals inhibition by little substance. As for `CC(Nc1ncnc2[nH]cnc12)c1cc(Cl)c2cccnc2c1N1CC[C@@H](O)C1` (stereo partly drawn) [Example 12, (3R)-1-{5-chloro-7-[1-(9H-purin-6-ylamino)ethyl]quinolin-8-yl}pyrrolidin-3-ol bis-trifluoroacetate], the 50% inhibitory concentration (IC50) by setting is: (separated isomer, 1st peak) above 1000 nM; (separated isomer, 2nd peak) below 50 nM.
`CC(Nc1ncnc2[nH]cnc12)c1cc(Cl)c2cccnc2c1N1CCC(CCO)CC1` (stereo not shown) [Example 73, 2-(1-{5-Chloro-7-[1-(9H-purin-6-ylamino)ethyl]quinolin-8-yl}piperidin-4-yl)ethanol bis(trifluoroacetate)] had an IC50 of 100 to 250 nM.
For the molecule `COCCN1CCN(c2c(C(C)Nc3ncnc4[nH]cnc34)cc(Cl)c3cccnc23)CC1` (stereo not shown) [Example 11, N-(1-{5-chloro-8-[4-(2-methoxyethyl)piperazin-1-yl]quinolin-7-yl]ethyl)-9H-purin-6-amine tris-trifluoroacetate], the IC50 was below 50 nM.
The same measure, in the same setting: the figure for `Cc1nc2c(-c3cccc(F)c3)c(C(C)Nc3ncnc4[nH]cnc34)ccc2s1` (stereo not shown) [Example 2, N-{1-[4-(3-fluorophenyl)-2-methyl-1,3-benzothiazol-5-yl]ethyl}-9H-purin-6-amine trifluoroacetate] is above 1000 nM; for `CC(Nc1ncnc2[nH]cnc12)c1cc(Cl)c2ccnnc2c1-c1ccnc(F)c1` (stereo not shown) [Example 42, N-{1-[5-Chloro-8-(2-fluoropyridin-4-yl)cinnolin-7-yl]ethyl}-9H-purin-6-amine] it is 500 to 1000 nM.
Same read-out and setting: the value for `CC(Nc1ncnc2[nH]cnc12)c1cc(Cl)c2cccnc2c1N1CCN(C2CCC2)CC1` (stereo not shown) [Example 69, N-{1-[5-Chloro-8-(4-cyclobutylpiperazin-1-yl)quinolin-7-yl]ethyl}-9H-purin-6-amine tris(trifluoroacetate)] was below 50 nM.
On the same count and under the same terms, the value for `CC(Nc1ncnc2[nH]cnc12)c1cc(Cl)c2ccnnc2c1-c1ccccc1F` (single isomer, unassigned) [Example 26, N-{1-[5-Chloro-8-(2-fluorophenyl)cinnolin-7-yl]ethyl}-9H-purin-6-amine] was 250 to 500 nM.
As for `CC(=O)N[C@H]1CCN(c2c(C(C)Nc3ncnc4[nH]cnc34)cc(Cl)c3cccnc23)C1` (stereo partly drawn) [Example 13, N-((3S)-1-{5-chloro-7-[1-(9H-purin-6-ylamino)ethyl]quinolin-8-yl}pyrrolidin-3-yl}acetamide bis-trifluoroacetate], the IC50 was below 50 nM.
On to `CC(Nc1ncnc2[nH]cnc12)c1cc(Cl)c2cccnc2c1-c1ccccc1F` (stereo not shown) [Example 10, N-{1-[5-chloro-8-(2-fluorophenyl)quinolin-7-yl]ethyl}-9H-purin-6-amine bis-trifluoroacetate], for which the 50% inhibitory concentration (IC50) was 100 to 250 nM (separated isomer, 1st peak) and below 50 nM (separated isomer, 2nd peak).
Molecule `CC(Nc1ncnc2[nH]cnc12)c1cc(Cl)c2cccnc2c1N1CCC(N2CCCCC2)CC1` (stereo not shown) [Example 70, N-{1-[8-(1,4′-Bipiperidin-1′-yl)-5-chloroquinolin-7-yl]ethyl}-9H-purin-6-amine tris(trifluoroacetate)] returned an IC50 of 50 to 100 nM.
Same read-out and setting: the value for `Cc1nc(C(C)Nc2ncnc3[nH]cnc23)c(-c2cccc(F)c2)c2ccccc12` (stereo not shown) [Example 44, N-{1-[4-(3-Fluorophenyl)-1-methylisoquinolin-3-yl]ethyl}-9H-purin-6-amine] was 100 to 250 nM.
The same measure, in the same setting: the figure for `COc1ccc(-c2c(C(C)Nc3ncnc4[nH]cnc34)cc(Cl)c3ccnnc23)cc1F` (stereo not shown) [Example 41, N-{1-[5-Chloro-8-(3-fluoro-4-methoxyphenyl)cinnolin-7-yl]ethyl}-9H-purin-6-amine] is 500 to 1000 nM; for `CC(Nc1ncnc2[nH]cnc12)c1cc(Cl)c2ccnnc2c1-c1ccccc1F` (single isomer, unassigned) [Example 27, N-{1-[5-Chloro-8-(2-fluorophenyl)cinnolin-7-yl]ethyl}-9H-purin-6-amine] it is 50 to 100 nM.
The same measure, in the same setting: the figure for `CC(Nc1ncnc2[nH]cnc12)c1cc(F)c2ccnnc2c1-c1cccc(F)c1` (single isomer, unassigned) [Example 20, N-{1-[5-Fluoro-8-(3-fluorophenyl)cinnolin-7-yl]ethyl}-9H-purin-6-amine] is below 50 nM.

The record behind these values is patent US8680108B2, “Substituted fused aryl and heteroaryl derivatives as PI3K inhibitors” (Incyte Corporation, priority 2009, dated 2014).
